Laboratory results reported in a melting point compilation (Tetko et al.; mined from patent text by program, amines drawn as free bases though some values may be those of a salt).

Compared with `CCCCCCS(=O)(=O)c1nn2c(=O)c(Cl)c(F)nc2s1`, `COC(=O)c1ccc(C(O)c2cc3cc(Cl)cnc3n2S(=O)(=O)c2ccc(C(C)C)cc2)cc1` (stereo unspecified) is lower in melting point: 185 to 188 °C for the first, 77 °C for the second.

Compared with `c1ccc(-c2cnc3ncnn3c2)cc1`, `Cc1oc(-c2ccccc2)nc1COc1ccc([N+](=O)[O-])cn1` is lower in melting point: 164 to 167 °C for the first, 142 to 143 °C for the second.

First: Nc1nc(N)c(N=O)c(OCC2CCCCC2)n1
Second: Cc1ccc(-c2[nH]c(C3CCCCC3)nc2C(=O)Nc2nccs2)cc1
The melting point of the first is higher: 254 °C for the first, 199 to 200 °C for the second.

First: CC(C)c1nc(-c2cccs2)cc(-c2ccc(F)cc2)c1CO
Second: CCc1cc(NCc2ccc(-c3ccccc3C#N)cc2)n2nccc2n1
The melting point of the first is lower: 151 to 153 °C for the first, 230 to 233 °C for the second.

Compared with `CN(C)CCCOc1ccc(C(=O)NN)nc1`, `COCN(C(=O)CCl)c1c(OC)cccc1OC` is higher in melting point: 82 to 83 °C for the first, 104 to 106 °C for the second.

First: O=C(O)Cc1ccc2c(c1)CC(CNS(=O)(=O)c1ccc3ccccc3c1)C2 (stereo unspecified)
Second: COC(=O)[C@@H]1OCN(NS(=O)(=O)c2ccc([N+](=O)[O-])cc2)[C@H]1c1ccccc1
The melting point of the first is higher: 180 to 182 °C for the first, 160 to 162 °C for the second.

`CC(C)(O)c1cc(Cn2cncn2)cc(C(C)(C)C#N)c1` and `O=C1NC(=Cc2c[nH]c3ccccc23)C(=O)N1Cc1cc(C(F)(F)F)cc(C(F)(F)F)c1` cannot be ordered by melting point: 152 to 154 °C for the first, 151 to 153 °C for the second.

First: COc1ccc2c(c1)CCC1C2CCC2(C)C(NCc3ccc(O)c(OC)c3)CCC12 (stereo unspecified)
Second: COc1cccc2c(CCCN(C3CCC3)C3COc4c(F)ccc(C(N)=O)c4C3)coc12 (stereo unspecified)
The melting point of the first is higher: 169 to 170 °C for the first, 131 to 140 °C for the second.

First: Nc1nc2c(c(=O)n1N)Cc1nc(N)n(N)c(=O)c1C2
Second: CCCn1c(CCOC)nc2c(N)nc3cc(OC4CCN(C(=O)OC(C)(C)C)CC4)ccc3c21
The melting point of the first is higher: over 300 °C for the first, 173 to 175 °C for the second.

First: CCc1nn(-c2ccccc2)nc1C(C#N)C(=O)c1c(C)c(C)nn1C (stereo unspecified)
Second: Cc1cc(Cl)ccc1Cn1nc(C=O)c2ccccc21
The melting point of the first is higher: 119 °C for the first, 107 to 109 °C for the second.

First: O=C(CCl)Nc1ccc(Sc2ccc([N+](=O)[O-])cc2)cc1
Second: COc1ccc(N2CCN(c3ccc(NC(=O)Oc4ccccc4)cc3)CC2)cc1
The melting point of the first is higher: 217 to 219 °C for the first, 204 °C for the second.

First: Cc1cc(C)n(-c2ccc(C#N)nn2)n1
Second: Cc1c(Cl)nn(-c2ccc(Cl)cc2)c1Cl
The melting point of the first is higher: 187 to 189 °C for the first, 90 to 91.5 °C for the second.

Compared with `CC(=O)OC1CCC2(C)C(=CC(=O)C3C2CCC2(C)C(OC(C)=O)CCC32)C1` (stereo unspecified), `CC(C)CCCC(C)C1CCC2(C#N)C3C(O)CC4C(C)(C)C(OC(=O)c5ccccc5)CCC4(C)C3CCC12C` (stereo unspecified) is higher in melting point: 220 to 221 °C for the first, 270 to 271 °C for the second.

First: COc1cc2c(cc1OCc1ccccc1)[nH]c1cc(-c3ccccc3Cl)c3c(c12)C(=O)NC3=O
Second: COc1cc2c(cc1OC)C(c1ccccc1OC)=NN=C(C)C2
The melting point of the first is higher: 260 to 264 °C for the first, 119 to 121 °C for the second.

Compared with `Cc1cnc(N)cc1C(c1cc(F)ccc1F)S(=O)(=O)c1ccc(Cl)cc1` (stereo unspecified), `CC(=CC(=O)O)c1ccc(-c2ccc(F)cc2F)cc1` is higher in melting point: 188 to 189 °C for the first, 193 to 195 °C for the second.

First: Cc1oc(-c2ccc3ccccc3c2)nc1COc1ccc(/C=C/C=O)cc1
Second: CCn1c(-c2cccnc2)nc(-c2ccncc2)c1-c1ccc(Cl)cc1
The melting point of the first is lower: 179 to 180 °C for the first, 248 to 250 °C for the second.

Compared with `C=C(c1ccccc1)c1cccc(C(C)C(=O)OC)c1` (stereo unspecified), `COc1cccc(-c2cccc(C(N)=O)c2)c1` is higher in melting point: 69 to 71 °C for the first, 138 to 140 °C for the second.

First: N#Cc1cc(N)ccc1N1CCN(C2CCSCC2)CC1
Second: O=C1NCc2ccccc2N1C1CCNCC1
The melting point of the first is lower: 109 °C for the first, 153 to 155 °C for the second.

Compared with `CCNC(=O)c1ncn2c1CN=C(c1ccccc1Br)c1cc(F)ccc1-2`, `NC(=O)CNC(=O)c1ccnc(-c2cccc3cc(Cc4cccc(C(F)(F)F)c4)sc23)c1F` is lower in melting point: 218 to 220 °C for the first, 169 to 170 °C for the second.

First: COc1cc(-c2ncn(C)c2-c2scc(OC)c2OC)cc(OC)c1OC
Second: COc1cc(OC)c2cc(-c3ccc(OC)nc3OC)oc2c1
The melting point of the first is lower: 142 to 143 °C for the first, 155 to 156 °C for the second.

First: CC(=CC(=O)c1cccnc1)N1CCCC1
Second: Cc1cccc(C(=O)n2nc(Nc3cccc(OCC(=O)N4CCNCC4)c3)nc2N)c1
The melting point of the first is lower: 116 to 118 °C for the first, 169 to 171 °C for the second.

First: Nc1c([N+](=O)[O-])ccc(Oc2cccc(Cl)c2)c1Cl
Second: CSc1cc2c(N3CCc4ccc(Cl)cc43)ncnc2cc1Cl
The melting point of the first is lower: 101 to 102 °C for the first, 167 to 168 °C for the second.

First: OC[C@H]1C[C@H]2CN(c3ncc(F)cn3)CCN2C1
Second: CCC[C@H]1CC[C@H](c2ccc(CCC(F)F)cc2)CC1
The melting point of the first is higher: 123 to 124 °C for the first, 12 °C for the second.

First: CN1C(=O)C(C(=O)NCC2CCC(C(=O)O)CC2)S(=O)(=O)c2ccccc21 (stereo unspecified)
Second: CN1CCC(c2nn(-c3cccc(C(F)(F)F)c3)c3ccccc23)CC1
The melting point of the first is higher: 203 to 204 °C for the first, 103 to 105 °C for the second.

Compared with `COc1cc(OC)c(SC(C)(C)CC(=O)O)c(OC)c1`, `C=CCOC(=O)c1cnc2c(cnn2CCC(C)C)c1N` is higher in melting point: 103 to 105 °C for the first, 124 to 126 °C for the second.

For `C=Cc1cnc(C)c(O)c1CS`, the melting point was 198 to 200 °C.
